Results from the CheMixHub viscosity set.
Several values for one entry are separate records, joined by “and”; a condition that tells them apart may be missing. Equal entries are not always repeated.

Assay: xn = mol fraction of the nth substance listed

CCCC[NH2+]CCO.O=C([O-])c1ccccc1O + O
100 kPa, x2 = 0.142
Conditions	viscosity [mPa·s]
298 K	876
303 K	582.8
313 K	275.5
323 K	145

C[NH+](C)CCO.O=C([O-])CC(O)C(=O)O (stereo unspecified) + O
101 kPa, x2 = 0.89
Conditions	viscosity [mPa·s]
298 K	18.3
313 K	10.3

N[C@@H](Cc1c[nH]cn1)C(=O)[O-].[K+] + O
viscosity [mPa·s], 101.3 kPa
Conditions	293.15 K	298.15 K	303.15 K	308.15 K	313.15 K	318.15 K	323.15 K
x1 = 0.00475	1.09	0.9617	0.8629	0.7803	0.7087	0.648	0.5955
x1 = 0.00983	1.242	1.093	0.9797	0.8847	0.8025	0.7344	0.6734
x1 = 0.0145	1.421	1.252	1.119	1.007	0.9131	0.8323	0.7621
x1 = 0.02037	1.662	1.457	1.299	1.167	1.053	0.9568	0.8736
x1 = 0.03224	2.28	2.002	1.768	1.578	1.417	1.279	1.164
x1 = 0.04399	3.048	2.632	2.315	2.049	1.828	1.641	1.484

O=c1ccn([C@@H]2O[C@H](CO)C(O)C2O)c(=O)[nH]1 (stereo partly specified) + O
viscosity [mPa·s], 101.3 kPa
Conditions	293.15 K	298.15 K	303.15 K	308.15 K	313.15 K	318.15 K
x1 = 0.0001846	–	0.895	–	0.723	–	0.599
x1 = 0.0002557	–	0.897	–	0.724	–	0.601
x1 = 0.00027	1.006	0.895	0.807	0.738	0.623	–
x1 = 0.000318	–	0.898	–	0.726	–	0.602
x1 = 0.000355	1.008	0.897	0.809	0.74	0.625	–
x1 = 0.0003955	–	0.9	–	0.727	–	0.603
x1 = 0.000448	1.01	0.899	0.811	0.742	0.627	–
x1 = 0.0005076	–	0.902	–	0.729	–	0.605
x1 = 0.000533	1.012	0.901	0.813	0.744	0.628	–
x1 = 0.0005591	–	0.904	–	0.731	–	0.606
x1 = 0.00063	1.014	0.903	0.815	0.746	0.63	–
x1 = 0.00072	1.016	0.905	0.817	0.748	0.632	–

OC[C@@H](O)[C@@H](O)[C@H](O)[C@H](O)CO + O
viscosity, 101 kPa
Conditions	298.15 K	303.15 K	308.15 K	313.15 K	318.15 K	323.15 K
x1 = 0.002	–	0.837 mPa·s	0.748 mPa·s	0.674 mPa·s	–	0.565 mPa·s
x1 = 0.003588	0.9818 mPa·s	–	–	–	–	–
x1 = 0.004	–	0.872 mPa·s	0.777 mPa·s	0.705 mPa·s	0.645 mPa·s	0.587 mPa·s
x1 = 0.005	–	0.909 mPa·s	0.814 mPa·s	0.732 mPa·s	0.671 mPa·s	0.61 mPa·s
x1 = 0.007	–	0.941 mPa·s	0.845 mPa·s	0.757 mPa·s	0.692 mPa·s	0.626 mPa·s
x1 = 0.007158	1.085 mPa·s	–	–	–	–	–
x1 = 0.009	–	0.983 mPa·s	0.883 mPa·s	0.788 mPa·s	0.722 mPa·s	0.653 mPa·s
x1 = 0.01	–	1.069 mPa·s	0.914 mPa·s and 0.949 mPa·s and 0.992 mPa·s	0.821 mPa·s and 0.886 mPa·s	0.75 mPa·s and 0.777 mPa·s and 0.81 mPa·s	0.673 mPa·s and 0.697 mPa·s and 0.731 mPa·s
x1 = 0.01069	1.191 mPa·s	–	–	–	–	–
x1 = 0.01422	1.311 mPa·s	–	–	–	–	–
x1 = 0.01769	1.442 mPa·s	–	–	–	–	–
x1 = 0.018	–	1.217 mPa·s	1.088 mPa·s	0.966 mPa·s	0.876 mPa·s	0.786 mPa·s
x1 = 0.02	–	1.17 mPa·s	1.038 mPa·s	0.928 mPa·s	0.84 mPa·s	0.756 mPa·s

[Na+].[Na+].[O]=[Cr](=[O])([O-])[O-] + O
viscosity, 101 kPa
Conditions	x1 = 0.012	x1 = 0.02109	x1 = 0.027	x1 = 0.045	x1 = 0.069	x1 = 0.083
298.15 K	1.16 mPa·s	1.38 mPa·s	1.68 mPa·s	2.88 mPa·s	6.14 mPa·s	10.03 mPa·s
312.95 K	0.85 mPa·s and 0.8523 mPa·s	–	1.23 mPa·s	1.98 mPa·s	3.9 mPa·s	5.94 mPa·s
